Data published in ChEMBL document CHEMBL1131830, “Total synthesis of the potent proteasome inhibitor epoxomicin: a useful tool for understanding proteasome biology” (Bioorg Med Chem Lett, 1999).

System: Proteasome
Assay: Inhibitory activity against 20S proteosome
Type: subcellular

| k obs / 1 | Compound |
| --- | --- |
| 37200 M⁻¹ s⁻¹ | CC[C@H](C)[C@H](NC(=O)[C@H]([C@@H](C)CC)N(C)C(C)=O)C(=O)N[C@H](C(=O)N[C@@H](CC(C)C)C(=O)[C@@]1(C)CO1)[C@@H](C)O |
| 246 M⁻¹ s⁻¹ | CC[C@@H](C)[C@H](NC(=O)[C@H]([C@@H](C)CC)N(C)C(C)=O)C(=O)N[C@H](C(=O)N[C@@H](CC(C)C)C(=O)[C@@]1(C)CO1)[C@@H](C)O |
